The test has as its system Mugil cephalus. Nature of the test: Ovum maturation (vitellogenesis) of Mugil cephalus after implantation of sustained-release capsules. The following applies: M. cephalus, implanted in May, diameter in October; preparation 400 μg, estradiol 1000 μg; FIG. 3. In kind it is in vivo. The text has this: Additionally, a method for inducing vitellogenesis in fish can also be developed, by implanting the preparation of the present invention into body cavity or body wall of bony fish, for example in lateral muscle or abdomen cavity, in order to inducing the sexual maturation and vitellogenesis in the bony fish. With reference to FIG. 1, the preparation of the present invention is preferably implanted into lateral muscle adjacent to dorsal fin 21 of a bony fish 2 by an injector 1 in the present embodiment. Accordingly, the decapeptide in the preparation can be sustaining released into the bony fish for long-term inducing the hypophysis to synthesize and secrete gonadotropin (GtH) so that the vitellogenesis and breeding of the bony fish can be achieved.
Referring to FIG. 3, the responses of Mugil cephalus on decapeptide-induction are shown. In the present embodiment, several farming M. cephalus, are prepared and randomly assigned into five groups including (b1), (b2) ovaprin group, (b3) estradiol group, (b4) MixT group and (b5) control group. […] Moreover, ova of each group of M. cephalus are collected and analyzed monthly after implantation for monitoring the vitellogenesis in each group of M. cephalus. The ovum maturation of each group of M. cephalus is also determined in accordance with the size and accumulation of the ovum.

The source of these data is US8536124B2, “Artificial decapeptide for inducing vitellogenesis in fish” (National Pingtung University of Science & Technology, priority 2010, dated 2013).

Regarding `C[C@]12CC[C@@H]3c4ccc(O)cc4CC[C@H]3[C@@H]1CC[C@@H]2O` [estradiol], the oocyte diameter entry was “about 380 μm”.
